In patent publication US10124004B2, “Pyrido[3,4-d]pyrimidine derivative and pharmaceutically acceptable salt thereof” (Teijin Pharma Limited, priority 2015, dated 2018):

biological target: T1, CDK4/cyclin D3 (Homo sapiens, UniProt P11802); assay: Human CDK4/cyclin D3 inhibitory activity (QS S Assist CDK4/Cyclin D3_FP Kit, IMAP fluorescence polarization); format: biochemical; settings: 50% inhibitory concentration against CDK4/cyclin D3, given as class symbol
T1 construct: purchased Carna Biosciences, Inc. QS S Assist CDK4/Cyclin D3_FP Kit
T1 sequence (P11802 whole entry): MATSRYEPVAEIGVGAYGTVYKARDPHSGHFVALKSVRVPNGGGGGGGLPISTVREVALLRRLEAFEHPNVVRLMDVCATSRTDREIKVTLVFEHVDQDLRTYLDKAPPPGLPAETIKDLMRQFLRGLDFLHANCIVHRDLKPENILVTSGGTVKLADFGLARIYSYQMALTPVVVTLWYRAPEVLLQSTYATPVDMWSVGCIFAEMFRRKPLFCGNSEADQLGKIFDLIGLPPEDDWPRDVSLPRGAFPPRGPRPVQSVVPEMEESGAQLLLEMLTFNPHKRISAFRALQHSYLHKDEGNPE
T1 sequence (P30281 whole entry partner): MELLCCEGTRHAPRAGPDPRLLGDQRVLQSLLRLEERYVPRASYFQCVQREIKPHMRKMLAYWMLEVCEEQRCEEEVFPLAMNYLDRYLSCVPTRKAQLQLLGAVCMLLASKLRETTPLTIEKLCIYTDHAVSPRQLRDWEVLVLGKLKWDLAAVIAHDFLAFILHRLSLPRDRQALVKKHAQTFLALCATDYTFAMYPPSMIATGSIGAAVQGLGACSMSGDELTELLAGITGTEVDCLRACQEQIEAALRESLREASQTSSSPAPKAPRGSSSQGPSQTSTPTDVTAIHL
Procedure: Human CDK4/Cyclin D3 Inhibitory Activity
Each compound was analyzed for CDK4/cyclin D3 inhibitory activity with an assay kit (QS S Assist CDK4/Cyclin D3_FP Kit, available from Carna Biosciences, Inc.). This assay kit determines kinase activity on the basis of the IMAP technology by Molecular Devices. Specifically, the kinase activity is determined through quantification of a variation in fluorescent polarization caused by binding of a kinase-phosphorylated fluorescent substance to an IMAP-binding reagent.
Each solution was prepared with the 10× assay buffer attached to the kit or a separately prepared assay buffer having the same composition as the assay buffer attached to the kit. An assay buffer was prepared by 10-fold dilution of the 10× assay buffer with distilled water. The assay buffer contains 20 mM HEPES (pH 7.4), 0.01% Tween20, and 2 mM dithiothreitol. A test compound solution was prepared by dilution of the test compound with dimethyl sulfoxide (DMSO) to a concentration 100 times higher than the final concentration and then 25-fold dilution with the assay buffer to a concentration four times higher than the final concentration. An ATP/substrate/Metal solution was prepared by five-fold dilution of the 5×ATP/substrate/Metal solution attached to the kit with the assay buffer. An enzyme solution was prepared by dilution of the CDK4/cyclin D3 attached to the kit with the assay buffer to a concentration twice higher than the final concentration (final concentration of CDK4/cyclin D3:12.5 to 25 ng/well). A detection reagent was prepared by five-fold dilution of each of 5× IMAP-binding buffer A and 5×IMAP-binding buffer B with distilled water, mixing of IMAP-binding buffer A with IMAP-binding buffer B at a ratio of 85:15, and 400-fold dilution of the IMAP-binding reagent with the mixed buffer.
The test compound solution (5 μL/well) and the ATP/substrate/Metal solution (5 μL/well) were added to a 384-well plate, and the enzyme solution or the assay buffer (10 μL/well) was added to the plate (total amount of the reaction mixture: 20 μL/well) for initiation of enzymatic reaction. […] The reaction was performed at room temperature for 45 minutes, and the detection reagent (60 μL/well) was then added to the plate, followed by further reaction for 30 minutes at room temperature under light shielding conditions. Subsequently, fluorescent polarization was determined with a microplate reader at an excitation wavelength of 485 nm and an emission wavelength of 535 nm.
The percent inhibition of enzyme activity was calculated for each test compound (note: enzyme activity=100% in the case of addition of the enzyme solution and addition of DMSO instead of the test compound solution, whereas enzyme activity=0% in the case of addition of the assay buffer instead of the enzyme solution, and addition of DMSO instead of the test compound solution). The percent inhibition of enzyme activity was fitted to a dose-response curve, to determine a 50% inhibitory concentration against CDK4/cyclin D3.
In each table, “+++” corresponds to IC50<10 nM, “++” 10 nM≤IC50<100 nM, and “+” 100 nM≤IC50.

**Q.** `CO[C@H](C)c1cc2cnc(Nc3ccc(N4CCN(CCCC(=O)O)CC4)nn3)nc2c(NC(C)C)n1` [Compound 699] was tested. Which IC50 did it give?
**A.** The IC50 was 10 to 100 nM.

same assay, conditions: Human CDK4/cyclin D3 inhibitory activity; read-out: CDK4 Activity symbol

**Q.** Which IC50 does the source give for `COC(C)c1cc2cnc(Nc3ccc(CN4CCNCC4)cn3)nc2c(NCc2ccc(=O)[nH]c2)n1` (stereo not drawn) [Compound 416] here?
**A.** The IC50 was 10 to 100 nM.

**Q.** With `COC(C)c1cc2cnc(Nc3ccc(CN4CCNCC4)cn3)nc2c(NCC2CCC(=O)N2)n1` (stereo not drawn) [Compound 403] as the molecule, how does the IC50 read?
**A.** Its IC50 is 10 to 100 nM.

**Q.** For `COc1cccc(Nc2nc(C(C)OC)cc3cnc(Nc4ccc(CN5CCNCC5)cn4)nc23)c1` (stereo not drawn) [Compound 451], which IC50 is on record?
**A.** The IC50 was < 10 nM.

**Q.** `COC(C)c1cc2cnc(Nc3ccc(CN4CCNCC4)cn3)nc2c(NCCC2CCCOC2)n1` (stereo not drawn) [Compound 431] was tested. Which IC50 did it give?
**A.** The IC50 was < 10 nM.

**Q.** With `CO[C@H](C)c1cc2cnc(Nc3ccc(N4CCNCC4)nn3)nc2c(NC2CCS(=O)(=O)CC2)n1` [Compound 359] as the molecule, how does the IC50 read?
**A.** The IC50 was 10 to 100 nM.

**Q.** Which IC50 does the source give for `COC(C)c1cc2cnc(Nc3ccc(CN4CCNCC4)cn3)nc2c(N(C)C(C)C)n1` (stereo not drawn) [Compound 391] here?
**A.** Its IC50 is 10 to 100 nM.

**Q.** `CO[C@H](C)c1cc2cnc(Nc3ccc(N4C5CCC4CC(N)C5)cn3)nc2c(NC(C)C)n1` (stereo partly drawn) [Compound 502] was tested. Which IC50 did it give?
**A.** The IC50 was < 10 nM.

**Q.** Which IC50 does the source give for `CO[C@H](C)c1cc2cnc(Nc3ccc(N4CC5(CC(O)C5)C4)nn3)nc2c(NC(C)C)n1` [Compound 523] here?
**A.** Its IC50 is < 10 nM.

**Q.** For `CO[C@H](C)c1cc2cnc(Nc3ccc(N4CCN(C)CC4)nn3)nc2c(NC(C)C)n1` [Compound 531], which IC50 is on record?
**A.** Its IC50 is < 10 nM.

**Q.** Which IC50 does the source give for `CC(C)Nc1nc([C@@H](C)O)cc2cnc(Nc3ccc(N4CCN(CC(C)(C)C)CC4=O)cn3)nc12` [Compound 603] here?
**A.** Its IC50 is < 10 nM.

**Q.** How did the IC50 turn out when `COC(C)c1cc2cnc(Nc3ccc(CN4CCNCC4)cn3)nc2c(NC[C@H]2CC[C@H](C(=O)O)CC2)n1` (stereo partly drawn) [Compound 435] was run?
**A.** Its IC50 is 10 to 100 nM.

**Q.** With `CC(C)Nc1nc([C@@H](C)O)cc2cnc(Nc3ccc(O[C@@H]4CCCNC4)cn3)nc12` [Compound 571] as the molecule, how does the IC50 read?
**A.** The IC50 was < 10 nM.

**Q.** For `CO[C@H](C)c1cc2cnc(Nc3ccc(OCCN(C)C)nn3)nc2c(NC(C)C)n1` [Compound 471], which IC50 is on record?
**A.** The IC50 was 10 to 100 nM.

**Q.** How did the IC50 turn out when `C[C@@H](O)c1cc2cnc(Nc3ccc(N4CCNC(C)(C)C4=O)cn3)nc2c(NC2CCOCC2)n1` [Compound 441] was run?
**A.** Its IC50 is ≥ 100 nM.

**Q.** How did the IC50 turn out when `CO[C@H](C)c1cc2cnc(Nc3ccc(N4CCCNCC4)nn3)nc2c(NC(C)C)n1` [Compound 495] was run?
**A.** Its IC50 is < 10 nM.

**Q.** How did the IC50 turn out when `COC(C)c1cc2cnc(Nc3ccc(CN4CCNCC4)cn3)nc2c(NC2(CO)CCCC2)n1` (stereo not drawn) [Compound 413] was run?
**A.** Its IC50 is < 10 nM.

**Q.** Which IC50 does the source give for `CC(C)Nc1nc([C@@H](C)O)cc2cnc(Nc3ccc(N4CCCNCC4)nn3)nc12` [Compound 496] here?
**A.** The IC50 was < 10 nM.

**Q.** For `COC(C)c1cc2cnc(Nc3ccc(CN4CCNCC4)cn3)nc2c(NCC(C)C)n1` (stereo not drawn) [Compound 392], which IC50 is on record?
**A.** Its IC50 is < 10 nM.

**Q.** With `CO[C@H](C)c1cc2cnc(Nc3ccc(N4CCN[C@H](C)C4=O)cn3)nc2c(NC(C)C)n1` [Compound 462] as the molecule, how does the IC50 read?
**A.** Its IC50 is 10 to 100 nM.

**Q.** With `CNCCOc1ccc(Nc2ncc3cc([C@@H](C)O)nc(NC(C)C)c3n2)nn1` [Compound 552] as the molecule, how does the IC50 read?
**A.** The IC50 was < 10 nM.

**Q.** Which IC50 does the source give for `CO[C@H](C)c1cc2cnc(Nc3ccc(N4CCNCC4=O)nn3)nc2c(NC(C)C)n1` [Compound 356] here?
**A.** Its IC50 is 10 to 100 nM.

**Q.** For `CNC1C2CCC1CN(c1ccc(Nc3ncc4cc([C@@H](C)OC)nc(NC(C)C)c4n3)nc1)C2` (stereo partly drawn) [Compound 503], which IC50 is on record?
**A.** The IC50 was < 10 nM.

**Q.** For `CNCCCOc1ccc(Nc2ncc3cc([C@@H](C)O)nc(NC(C)C)c3n2)nc1` [Compound 528], which IC50 is on record?
**A.** The IC50 was < 10 nM.

**Q.** `COC(C)c1cc2cnc(Nc3ccc(CN4CCNCC4)cn3)nc2c(NC2CCCN(C)C2)n1` (stereo not drawn) [Compound 407] was tested. Which IC50 did it give?
**A.** The IC50 was 10 to 100 nM.

**Q.** `CO[C@H](C)c1cc2cnc(Nc3ccc(N4CC5(CCCN5)C4)cn3)nc2c(NC(C)C)n1` [Compound 486] was tested. Which IC50 did it give?
**A.** The IC50 was < 10 nM.

**Q.** `CO[C@H](C)c1cc2cnc(Nc3ccc(CN4CCCNCC4)cn3)nc2c(NC(C)C)n1` [Compound 493] was tested. Which IC50 did it give?
**A.** The IC50 was < 10 nM.

**Q.** With `CC(C)Nc1nc([C@@H](C)O)cc2cnc(Nc3ccc(OC4CNC4)cn3)nc12` [Compound 568] as the molecule, how does the IC50 read?
**A.** The IC50 was < 10 nM.

**Q.** Which IC50 does the source give for `COC(C)c1cc2cnc(Nc3ccc(CN4CCNCC4)cn3)nc2c(NCCN2CCNC2=O)n1` (stereo not drawn) [Compound 393] here?
**A.** Its IC50 is 10 to 100 nM.

**Q.** `CC(C)Nc1nc([C@@H](C)O)cc2cnc(Nc3ccc(O[C@H]4CCCNC4)cn3)nc12` [Compound 565] was tested. Which IC50 did it give?
**A.** Its IC50 is < 10 nM.
